Assay results from patent US8609814B2, “Modified globin proteins with altered electron transport pathway” (University of Essex Enterprises Limited, priority 2007, dated 2013).

B1: myoglobin: myoglobin in its ferryl oxidation state, two site model based on FIGS. 1 and 2 data (protein, UniProt P02144 2-154, looked up)
Myoglobin: GLSDGEWQLVLNVWGKVEADIPGHGQEVLIRLFKGHPETLEKFDKFKHLKSEDEMKASEDLKKHGATVLTALGGILKKKGHHEAEIKPLAQSHATKHKIPVKYLEFISECIIQVLQSKHPGDFGADAQGAMNKALELFRKDMASNYKELGFQG
modifications: ferryl oxidation state
B2: Horse myoglobin: ferric horse myoglobin from Sigma-Aldrich, further purified by gel filtration (protein, UniProt P68082 2-154, looked up)
Myoglobin: GLSDGEWQQVLNVWGKVEADIAGHGQEVLIRLFTGHPETLEKFDKFKHLKTEAEMKASEDLKKHGTVVLTALGGILKKKGHHEAELKPLAQSHATKHKIPIKYLEFISDAIIHVLHSKHPGDFGADAQGAMTKALELFRNDIAAKYKELGFQG
modifications: ferric
notes: ferric horse myoglobin from Sigma-Aldrich, further purified by gel filtration

Experiments:
[1] = ferryl myoglobin reduction kinetics by deferiprone; assay type: biochemical; details: for concentration dependence of ferryl reduction rate constant (high affinity through-protein electron transfer pathway): reductant deferiprone, ferryl myoglobin 10 μM, sodium phosphate pH 7.4, 25° C.
Method: In this example the kinetics of the reduction of ferryl haem from myoglobin from different species to ferric haem protein were examined kinetically to determine the presence or absence of a high affinity-through protein pathway. Following the procedure, ferric horse myoglobin from Sigma-Aldrich (Poole, Dorset, UK, further purified by gel filtration), or recombinant ferric Aplysia myoglobin Mb (20 μM) in 5 mM sodium phosphate pH 7.4 was reacted with H2O2 (20 μM) at 25° C. for 15 min. At this time conversion of ferric myoglobin to ferryl myoglobin was greater than 95% as measured by addition of sodium sulfide (1 mM). Catalase (10 nM) was added to remove unreacted H2O2 and was left to react for a further 1 min. At the pH used the ferryl haem protein is stable for several hours. Reductant was then added in 0.1M sodium phosphate pH 7.4 in a 1:1 volume ratio so that final concentration of ferryl myoglobin was 10 μM. The pH may be ‘jumped’ to other values where the ferryl haem is unstable using other strong buffers (e.g. 0.1M sodium acetate, pH 5). The optical spectrum was followed until reaction was complete. The time course (425 nm-408 nm) was fitted to a single exponential function using the least squares method. These rate constants were then plotted as a function of reductant concentration and this profile fitted (least squares method) to a double rectangular hyperbola (FIG. 1):
Where ka and kb are the maximum rates for each hyperbola and KD1 and KD2 are the dissociation constants, S is the concentration of the reductant and AR is the rate constant for ferryl auto-reduction.
Wild-type and recombinant sperm whale myoglobin and recombinant Tyr103>Phe sperm whale myoglobin were reacted with peroxide and the kinetics of ferryl haem reduction by deferiprone determined as described in example 1. The through-protein electron transfer pathway, evident in wild type sperm whale myoglobin, is not observed in the Tyr103>Phe mutant (FIG. 2).

[2] = ferryl human haemoglobin reduction kinetics by ascorbate; assay type: biochemical; details: reductant ascorbate; 10 μM ferryl protein; sodium phosphate pH 7.4; double exponential fit
Source text: Recombinant human haemoglobin was reacted with peroxide and the kinetics of ferryl haem reduction by ascorbate determined as described in example 1. The time course of ferryl haem reduction is not single exponential, as observed with myoglobin, but can be described using a double exponential function that generates two rate constants, one representing the observed rate constant for ferryl reduction of the alpha subunit and one representing the observed rate constant for ferryl reduction of the beta subunit.

Molecule	concentration dependence of ferryl reduction rate constant (high affinity through-protein electron transfer pathway) [1]	further results
Tyr103>Phe mutant: recombinant Tyr103>Phe sperm whale myoglobin	not observed	–
wild type ferryl human haemoglobin: recombinant wild type human haemoglobin, alpha and beta subunits	–	concentration dependence of ferryl reduction rate constant, alpha subunit [2]: double rectangular hyperbola concentration dependence
wild type sperm whale myoglobin: wild-type recombinant sperm whale myoglobin	evident	–
B1	–	kmax, transfer of an electron through the protein to the ferryl haem iron (high affinity site) ([1]; two site model of FIGS. 1 and 2 data, site at or close to Tyr103): ≈ 0.01 s^−1
B2	shows a double rectangular hyperbola concentration dependence	–
